This passage reports IC50 results from US11130778B2, “CD73 inhibitors” (ORIC Pharmaceuticals, Inc., priority 2019, dated 2021).

pIC50: −log10 of the molar value.

This assay deals with T1, CD73 (Homo sapiens, UniProt P21589).
T1 sequence (P21589 27-549): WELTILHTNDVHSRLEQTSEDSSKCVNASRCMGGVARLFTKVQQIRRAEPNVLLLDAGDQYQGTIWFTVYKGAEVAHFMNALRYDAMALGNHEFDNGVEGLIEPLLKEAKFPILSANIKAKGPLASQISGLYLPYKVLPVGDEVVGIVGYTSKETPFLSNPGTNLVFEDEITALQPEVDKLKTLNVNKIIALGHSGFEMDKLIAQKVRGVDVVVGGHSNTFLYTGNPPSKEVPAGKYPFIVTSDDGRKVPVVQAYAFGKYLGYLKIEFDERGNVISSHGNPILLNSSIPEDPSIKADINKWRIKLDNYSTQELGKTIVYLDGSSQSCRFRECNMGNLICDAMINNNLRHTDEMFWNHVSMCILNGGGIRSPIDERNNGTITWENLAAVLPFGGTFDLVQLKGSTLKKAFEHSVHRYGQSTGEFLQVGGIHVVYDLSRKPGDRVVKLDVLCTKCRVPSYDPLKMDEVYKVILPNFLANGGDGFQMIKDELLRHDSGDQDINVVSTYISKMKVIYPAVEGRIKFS
In words: Biochemical assay of CD73 inhibition (Malachite Green). The conditions noted are these: CD73 0.3208 nM, AMP 15 μM, Tris-HCl pH 7.4, Malachite Green absorbance readout; read-out: CD73_Biochem. The method, then: Example A1: Biochemical Assay
Assay Reaction Conditions
• Assay Volume: 70 μl • Reaction Volume: 50 μl • CD73: 0.3208 nM • AMP:15 μM • Assay Buffer: 2 5 mM Tris-HCL, pH 7.4, 0.01% Brij-35, 0.01% BSA, 5 mM MgCl2 Assay Procedure:
Made dose titration of testing compounds in assay buffer, 10 points 1/2 log titrations in duplicates starting at 100 μM.
Added 25 µl of CD73 to each well for a final concentration of […].
Incubated at RT for 15 min.
Added 25 µl of AMP to each well for a final concentration of 15 μM.
Incubated at RT for 10 min.
Added […] of Malachite Green Reagent A, incubate at RT for 10 min.
Added […] of Malachite Green Reagent B, incubate at RT for 45 min.
Read the Absorbance on Envision plate reader using excitation filter: Cy5 […].
The ability of the compounds disclosed herein to inhibit CD73 activity was quantified and the respective IC50 values were determined. Table 2 provides the biochemical IC50 values of compounds disclosed herein.
Consider `CC(C)CNc1nc(Cl)nc2c1cnn2[C@@H]1O[C@H](CO[C@@](CO)(Cc2nn[nH]n2)P(=O)(O)O)[C@@H](O)[C@H]1O` [Example 32, ((S)-2-(((2R,3S,4R,5R)-5-(6-chloro-4-(isobutylamino)-1H-pyrazolo[3,4-d]pyrimidin-1-yl)-3,4-dihydroxytetrahydrofuran-2-yl)methoxy)-1-hydroxy-3-(2H-tetrazol-5-yl)propan-2-yl)phosphonic acid], for which the pIC50 was 7.00 to 8.00.
As to `O=P(O)(O)C(CO)(Cc1nn[nH]n1)OC[C@H]1O[C@@H](n2ncc3c(NC4CCC4)nc(CO)nc32)[C@H](O)[C@@H]1O` (stereo partly drawn) [Example 17, (2-(((2R,3S,4R,5R)-5-(4-(cyclobutylamino)-6-(hydroxymethyl)-1H-pyrazolo[3,4-d]pyrimidin-1-yl)-3,4-dihydroxytetrahydrofuran-2-yl)methoxy)-1-hydroxy-3-(2H-tetrazol-5-yl)propan-2-yl)phosphonic acid], the pIC50 was at least 8.00.
Take `COC[C@](OC[C@H]1O[C@@H](n2ncc3c(NC4CCCC4)nc(Cl)nc32)[C@H](O)[C@@H]1O)(C(=O)NO)P(=O)(O)O` [Example 36, ((R)-2-(((2R,3S,4R,5R)-5-(6-chloro-4-(cyclopentylamino)-1H-pyrazolo[3,4-d]pyrimidin-1-yl)-3,4-dihydroxytetrahydrofuran-2-yl)methoxy)-1-(hydroxyamino)-3-methoxy-1-oxopropan-2-yl)phosphonic acid]: the pIC50 was at least 8.00.
As to `O=P(O)(O)C(CO)(CCc1nnn[nH]1)OC[C@H]1O[C@@H](n2ncc3c(NC4CCCC4)nc(Cl)nc32)[C@H](O)[C@@H]1O` (stereo partly drawn) [Example 18, (2-(((2R,3S,4R,5R)-5-(6-chloro-4-(cyclopentylamino)-1H-pyrazolo[3,4-d]pyrirnidin-1-yl)-3,4-dihydroxytetrahydrofuran-2-yl)methoxy)-1-hydroxy-4-(1H-tetrazol-5-yl)butan-2-yl)phosphonic acid], the pIC50 was at least 8.00.
Take `COC[C@](Cc1nn[nH]n1)(OC[C@H]1O[C@@H](n2ncc3c(NC4CCC4)nc(CO)nc32)[C@H](O)[C@@H]1O)P(=O)(O)O` [Example 9, ((R)-2-(((2R,3S,4R,5R)-5-(4-(cyclobutylamino)-6-(hydroxymethyl)-1H-pyrazolo[3,4-d]pyrimidin-1-yl)-3,4-dihydroxytetrahydrofuran-2-yl)methoxy)-1-methoxy-3-(2H-tetrazol-5-yl)propan-2-yl)phosphonic acid]: the pIC50 is at least 8.00.
For `COC[C@@](Cc1nn[nH]n1)(OC[C@H]1O[C@@H](n2ncc3c(NCC(C)C)nc(Cl)nc32)[C@H](O)[C@@H]1O)P(=O)(O)O` [Example 34, ((S)-2-(((2R,3S,4R,5R)-5-(6-chloro-4-(isobutylamino)-1H-pyrazolo[3,4-d]pyrimidin-1-yl)-3,4-dihydroxytetrahydrofuran-2-yl)methoxy)-1-methoxy-3-(2H-tetrazol-5-yl)propan-2-yl)phosphonic acid], the pIC50 is 7.00 to 8.00.
As for `O=P(O)(O)[C@](CO)(Cc1nn[nH]n1)OC[C@H]1O[C@@H](n2ncc3c(N[C@@H]4CCc5ccccc54)nc(Cl)nc32)[C@H](O)[C@@H]1O` [Example 47], the pIC50 was 7.00 to 8.00.
Consider `CC(C)Nc1nc(Cl)nc2c1cnn2[C@@H]1O[C@H](CO[C@](CO)(Cc2nn[nH]n2)P(=O)(O)O)[C@@H](O)[C@H]1O` [Example 29, ((R)-2-(((2R,3S,4R,5R)-5-(6-chloro-4-(isopropylamino)-1H-pyrazolo[3,4-d]pyrimidin-1-yl)-3,4-dihydroxytetrahydrofuran-2-yl)methoxy)-1-hydroxy-3-(2H-tetrazol-5-yl)propan-2-yl)phosphonic acid], for which the pIC50 is at least 8.00.
Take `O=P(O)(O)[C@@](CO)(COCc1nn[nH]n1)OC[C@H]1O[C@@H](n2ncc3c(NCC4CC4)nc(Cl)nc32)[C@H](O)[C@@H]1O` [Example 54, ((S)-1-((2H-tetrazol-5-yl)methoxy)-2-(((2R,3S,4R,5R)-5-(6-chloro-4-((cyclopropylmethyl)amino)-1H-pyrazolo[3,4-d]pyrimidin-1-yl)-3,4-dihydroxytetrahydrofuran-2-yl)methoxy)-3-hydroxypropan-2-yl)phosphonic acid]: the pIC50 is at least 8.00.
The same measure for `COCC(CC(=O)NS(=O)(=O)N(C)C)(OC[C@H]1O[C@@H](n2ncc3c(NC4CCCC4)nc(Cl)nc32)[C@H](O)[C@@H]1O)P(=O)(O)O` (stereo partly drawn) [Example 22, (2-(((2R,3S,4R,5R)-5-(6-chloro-4-(cyclopentylamino)-1H-pyrazolo[3,4-d]pyrimidin-1-yl)-3,4-dihydroxytetrahydrofuran-2-yl)methoxy)-4-((N,N-dimethylsulfamoyl)amino)-1-methoxy-4-oxobutan-2-yl)phosphonic acid]: at least 8.00; for `COCC(COCc1nn[nH]n1)(OC[C@H]1O[C@@H](n2ncc3c(N[C@@H]4CCc5ccccc54)nc(Cl)nc32)[C@H](O)[C@@H]1O)P(=O)(O)O` (stereo partly drawn) [Example 56, (1-((2H-tetrazol-5-yl)methoxy)-2-(((2R,3S,4R,5R)-5-(6-chloro-4-(((R)-2,3-dihydro-1H-inden-1-yl)amino)-1H-pyrazolo[3,4-d]pyrimidin-1-yl)-3,4-dihydroxytetrahydrofuran-2-yl)methoxy)-3-methoxypropan-2-yl)phosphonic acid]: at least 8.00.
The same measure for `CC(C)CNc1nc(Cl)nc2c1cnn2[C@@H]1O[C@H](COC(CO)(Cc2nn[nH]n2)P(=O)(O)O)[C@@H](O)[C@H]1O` (stereo partly drawn) [Example 16, (2-(((2R,3S,4R.,5R)-5-(6-chloro-4-(isobutylamino)-1H-pyrazolo[3,4-d]pyrimidin-1-yl)-3,4-dihydroxytetrahydrofuran-2-yl)methoxy)-1-hydroxy-3-(2H-tetrazol-5-yl)propan-2-yl)phosphonic acid]: at least 8.00; for `O=P(O)(O)[C@@](CO)(Cc1nn[nH]n1)OC[C@H]1O[C@@H](n2ncc3c(NC4CCCC4)nc(C#CC4CC4)nc32)[C@H](O)[C@@H]1O` [Example 50, ((R)-2-(((2R,3S,4R,5R)-5-(4-(cyclopentylamino)-6-(cyclopropylethynyl)-1H-pyrazolo[3,4-d]pyrimidin-1-yl)-3,4-dihydroxytetrahydrofuran-2-yl)methoxy)-1-hydroxy-3-(2H-tetrazol-5-yl)propan-2-yl)phosphonic acid]: at least 8.00; for `O=P(O)(O)[C@@](CO)(COCc1nn[nH]n1)OC[C@H]1O[C@@H](n2ncc3c(NC4CCCC4)nc(Cl)nc32)[C@H](O)[C@@H]1O` [Example 25, ((S)-1-((2H-tetrazol-5-yl)methoxy)-2-(((2R,3S,4R,5R)-5-(6-chloro-4-(cyclopentylamino)-1H-pyrazolo[3,4-d]pyrimidin-1-yl)-3,4-dihydroxytetrahydrofuran-2-yl)methoxy)-3-hydroxypropan-2-yl)phosphonic acid]: at least 8.00.
Under `O=P(O)(O)C(COCc1nnn[nH]1)(Cc1nnn[nH]1)OC[C@H]1O[C@@H](n2ncc3c(NC4CCCC4)nc(Cl)nc32)[C@H](O)[C@@H]1O` (stereo in doubt) [Example 42, ((R)-1-((1H-tetrazol-5-yl)methoxy)-2-(((2R,3S,4R,5R)-5-(6-chloro-4-(cyclopentylamino)-1H-pyrazolo[3,4-d]pyrimidin-1-yl)-3,4-dihydroxytetrahydrofuran-2-yl)methoxy)-3-(1H-tetrazol-5-yl)propan-2-yl)phosphonic acid] stands at least 8.00; under `COC[C@@](Cc1nn[nH]n1)(OC[C@H]1O[C@@H](n2ncc3c(NC(C)C)nc(Cl)nc32)[C@H](O)[C@@H]1O)P(=O)(O)O` [Example 30, ((S)-2-(((2R,3S,4R,5R)-5-(6-chloro-4-(isopropylamino)-1H-pyrazolo[3,4-d]pyrimidin-1-yl)-3,4-dihydroxytetrahydrofuran-2-yl)methoxy)-1-methoxy-3-(2H-tetrazol-5-yl)propan-2-yl)phosphonic acid], 7.00 to 8.00.
`COCC(Cc1nn[nH]n1)(OC[C@H]1O[C@@H](n2ncc3c(NC(C)C)nc(Cl)nc32)[C@H](O)[C@@H]1O)P(=O)(O)O` (stereo partly drawn) [Example 23, (2-(((2R,3S,4R,5R)-5-(6-chloro-4-(isopropylamino)-1H-pyrazolo[3,4-d]pyrimidin-1-yl)-3,4-dihydroxytetrahydrofuran-2-yl)methoxy)-1-methoxy-3-(2H-tetrazol-5-yl)propan-2-yl)phosphonic acid]: the pIC50 is at least 8.00.
`CC(C)Nc1nc(Cl)nc2c1cnn2[C@@H]1O[C@H](CO[C@@](CO)(Cc2nn[nH]n2)P(=O)(O)O)[C@@H](O)[C@H]1O` [Example 28, ((S)-2-(((2R,3S,4R,5R)-5-(6-chloro-4-(isopropylamino)-1H-pyrazolo[3,4-d]pyrimidin-1-yl)-3,4-dihydroxytetrahydrofuran-2-yl)methoxy)-1-hydroxy-3-(2H-tetrazol-5-yl)propan-2-yl)phosphonic acid]: the pIC50 is 7.00 to 8.00.
